Data on 21 compounds can be found in patent US20160039825A1 (BIOGEN MA INC., priority 2013, published 2016).

In the experiment the target is T1, Human ATX protein (Homo sapiens, UniProt Q13822).
T1 construct: made in house
Nature of the experiment: Autotaxin (ATX) assay, FRET with FS-3 substrate. The format is biochemical. Particulars: upper bound bins (no greater than 100, 250 or 500 nM); FS-3 2 μM, ATX 1.0 μg/mL. An excerpt: ATX (Autotaxin) is a 125 KDa glycoprotein with lysophospholipase D (LPLD) activity that generates the bioactive lipid lysophosphatidic acid (LPA) from lysophosphatidylcholine (LPC). The ATX biochemical assay utilizes a FRET (fluorescence resonance energy transfer) technology platform. The fluorescence signal of FRET substrate FS-3 is quenched due to intra-molecular FRET of a fluorophore to a non-fluorescing quencher (Ferguson, C. G., et al., Org Lett. 2006 May 11; 8(10): 2023-2026, which is incorporated by reference in its entirety). ATX catalyzes the hydrolysis of the substrate which separates the dabsyl quencher from the fluorescein reporter, which becomes fluorescent. The reaction is monitored by a SpectraMax M5 (Molecular Devices, Sunnyvale, Calif.) with at excitation wavelength 485 nm and emission wavelength […].
Fatty acid free-BSA (Sigma A8806): 10 mg/mL in H2O, stored at 4° C.
2×ATX assay buffer: 100 mM Tris, 280 mM NaCl, 10 mM KCl, 2 mM CaCl2, 2 mM MgCl2, pH 7.4.
Human ATX protein: expressed and purified in house. Stored at −80° C.
Substrate FS-3 (Echelon, L-2000): 100 μg in 77.74 μL H2O (1 mM stock), stored at −20° C.
384-well flat bottom plates—Corning #3575.
Compound dilution—All compounds were provided at 10 mM in 100% DMSO. In the first well, 2 μL of 10 mM compound was added to 78 μL of DMSO (1:40 dilution). In subsequent wells 3-fold dilution (total 10 dilutions) were performed.
1×ATX assay buffer was made up with a final concentration of 1 mg/mL fatty acid free-BSA using 2×ATX assay buffer, 10 mg/ml fatty acid free-BSA and ddH2O.
ATX protein was diluted with 1×ATX assay buffer to a concentration of 1.32 μg/mL (1.32×). 38 μL was added per well to the assay plate. The final concentration of ATX in the reaction as 1.0 μg/mL.
2 μL per well of compounds was transferred to provide the desired concentration. The plate was centrifuged, then incubated at room temperature for 30 minutes on the shaker.
FS-3 was diluted with 1×ATX assay buffer to a concentration of FS-3 of 10 μM (5×). Then, 10 μL was added per well to the assay plate. The final concentration of FS-3 in the reaction was 2 μM. The plate was centrifuged. The plate was kept shaking at room temperature for 2 hours. Because FS-3 substrate is light sensitive, plates were kept covered and protected from light.
Fluorescence was measured using SpectraMax M5 (excitation at 485 nm/emission at 538 nm, top read).
On to `CCNC(=O)c1cc2n(n1)CCCN(C(=O)OCc1cc(Cl)cc(Cl)c1)C2` [Example 29, 3,5-Dichlorobenzyl 2-(ethylcarbamoyl)-7,8-dihydro-4H-pyrazolo[1,5-a][1,4]diazepine-5(6H)-carboxylate], for which the IC50 is at most 100 nM.

Compound `O=C(OCc1cc(C(F)(F)F)cc(C(F)(F)F)c1)N1CCCn2nc(C(=O)N3CCOCC3)cc2C1` [Example 30, 3,5-Bis(trifluoromethyl)benzyl 2-(morpholine-4-carbonyl)-7,8-dihydro-4H-pyrazolo[1,5-a][1,4]diazepine-5(6H)-carboxylate] registered an IC50 of at most 100 nM.

For `O=C(OCc1cc(C(F)(F)F)cc(C(F)(F)F)c1)N1CCCn2nc(C(=O)N3CCC(O)CC3)cc2C1` [Example 31, 3,5-Bis(trifluoromethyl)benzyl 2-(4-hydroxypiperidine-1-carbonyl)-7,8-dihydro-4H-pyrazolo[1,5-a][1,4]diazepine-5(6H)-carboxylate], the IC50 was at most 100 nM.

Regarding `O=C(OCc1cc(C(F)(F)F)cc(C(F)(F)F)c1)N1CCCn2nc(C(=O)N3CCC(F)CC3)cc2C1` [Example 32, 3,5-Bis(trifluoromethyl)benzyl 2-(4-fluoropiperidine-1-carbonyl)-7,8-dihydro-4H-pyrazolo[1,5-a][1,4]diazepine-5(6H)-carboxylate], the IC50 was at most 100 nM.

`O=C(O)C1CC2CCCC(C1)N2C(=O)c1cc2n(n1)CCN(C(=O)OCc1cc(Cl)cc(Cl)c1)C2` (stereo not drawn) [Example 41, 9-(5-(((3,5-Dichlorobenzyl)oxy)carbonyl)-4,5,6,7-tetrahydropyrazolo[1,5-a]pyrazine-2-carbonyl)-9-azabicyclo[3.3.1]nonane-3-carboxylic acid]: the IC50 is at most 100 nM.

Compound `O=C(O)C1CC2CCCC(C1)N2C(=O)c1cc2n(n1)CCN(C(=O)OCc1cccc(Cl)c1)C2` (stereo not drawn) [Example 42, 9-(5-(((3-chlorobenzyl)oxy)carbonyl)-4,5,6,7-tetrahydropyrazolo[1,5-a]pyrazine-2-carbonyl)-9-azabicyclo[3.3.1]nonane-3-carboxylic acid] came in with an IC50 of at most 500 nM.

With `O=C(O)C1CC2CCCC(C1)N2C(=O)c1cc2n(n1)CCN(C(=O)OCc1cccc(C(F)(F)F)c1)C2` (stereo not drawn) [Example 43, 9-(5-(((3-(Trifluoromethyl)benzyl)oxy)carbonyl)-4,5,6,7-tetrahydropyrazolo[1,5-a]pyrazine-2-carbonyl)-9-azabicyclo[3.3.1]nonane-3-carboxylic acid], the IC50 was at most 100 nM.

With `O=C(O)C1CC2CCCC(C1)N2C(=O)c1cc2n(n1)CCN(C(=O)OCc1ccc(C(F)(F)F)cc1)C2` (stereo not drawn) [Example 45, 9-(5-(((4-(Trifluoromethyl)benzyl)oxy)carbonyl)-4,5,6,7-tetrahydropyrazolo[1,5-a]pyrazine-2-carbonyl)-9-azabicyclo[3.3.1]nonane-3-carboxylic acid], the 50% inhibitory concentration (IC50) was at most 250 nM.

`O=C(O)C1CC2CCCC(C1)N2C(=O)c1cc2n(n1)CCN(C(=O)OCc1cc(F)cc(Cl)c1)C2` (stereo not drawn) [Example 46, 9-(5-(((3-Chloro-5-fluorobenzyl)oxy)carbonyl)-4,5,6,7-tetrahydropyrazolo[1,5-a]pyrazine-2-carbonyl)-9-azabicyclo[3.3.1]nonane-3-carboxylic acid] showed an IC50 of at most 100 nM.

Consider `O=C(O)C1CC2CCCC(C1)N2C(=O)c1cc2n(n1)CCN(C(=O)OCc1cc(C(F)(F)F)cc(C(F)(F)F)c1)C2` (stereo not drawn) [Example 48, 9-(5-(((3,5-Bis(trifluoromethyl)benzyl)oxy)carbonyl)-4,5,6,7-tetrahydropyrazolo[1,5-a]pyrazine-2-carbonyl)-9-azabicyclo[3.3.1]nonane-3-carboxylic acid], for which the half-inhibitory concentration (IC50) is at most 100 nM.

Turning to `O=C(O)C1CC2CCCC(C1)N2C(=O)c1cc2n(n1)CCCN(C(=O)NCc1cc(Cl)cc(Cl)c1)C2` (stereo not drawn) [Example 49, 9-(5-((3,5-Dichlorobenzyl)carbamoyl)-5,6,7,8-tetrahydro-4H-pyrazolo[1,5-a][1,4]diazepine-2-carbonyl)-9-azabicyclo[3.3.1]nonane-3-carboxylic acid], the half-maximal inhibitory concentration (IC50) is at most 100 nM.

On to `O=C(O)C1CC2CCCC(C1)N2C(=O)c1cc2n(n1)CCCN(C(=O)OCc1cccc(Cl)c1)C2` (stereo not drawn) [Example 57, 9-(5-((3-Chlorobenzyloxy)carbonyl)-5,6,7,8-tetrahydro-4H-pyrazolo[1,5-a][1,4]diazepine-2-carbonyl)-9-aza-bicyclo[3.3.1]nonane-3-carboxylic acid], for which the IC50 was at most 250 nM.

Compound `O=C(O)C1CC2CCCC(C1)N2C(=O)c1cc2n(n1)CCCN(C(=O)OCc1cccc(C(F)(F)F)c1)C2` (stereo not drawn) [Example 58, 9-(5-((3-(Trifluoromethyl)benzyloxy)carbonyl)-5,6,7,8-tetrahydro-4H-pyrazolo[1,5-a][1,4]diazepine-2-carbonyl)-9-aza-bicyclo[3.3.1]nonane-3-carboxylic acid] displayed an IC50 of at most 100 nM.

In the case of `O=C(O)C1CC2CCCC(C1)N2C(=O)c1cc2n(n1)CCCN(C(=O)OCc1ccc(Cl)cc1)C2` (stereo not drawn) [Example 59, 9-(5-((4-Chlorobenzyloxy)carbonyl)-5,6,7,8-tetrahydro-4H-pyrazolo[1,5-a][1,4]diazepine-2-carbonyl)-9-aza-bicyclo[3.3.1]nonane-3-carboxylic acid], the IC50 was at most 100 nM.

As to `O=C(O)C1CC2CCCC(C1)N2C(=O)c1cc2n(n1)CCCN(C(=O)OCc1ccc(C(F)(F)F)cc1)C2` (stereo not drawn) [Example 60], the IC50 was at most 100 nM.

As to `O=C(O)C1CC2CCCC(C1)N2C(=O)c1cc2n(n1)CCCN(C(=O)OCc1cc(F)cc(Cl)c1)C2` (stereo not drawn) [Example 61, 9-(5-((3-Chloro-5-fluorobenzyloxy)carbonyl)-5,6,7,8-tetrahydro-4H-pyrazolo[1,5-a][1,4]diazepine-2-carbonyl)-9-aza-bicyclo[3.3.1]nonane-3-carboxylic acid], the half-maximal inhibitory concentration (IC50) was at most 100 nM.

Consider `O=C(O)C1CC2CCCC(C1)N2C(=O)c1cc2n(n1)CCCN(C(=O)OCc1cc(F)cc(F)c1)C2` (stereo not drawn) [Example 62, 9-(5-((3,5-Trifluorobenzyloxy)carbonyl)-5,6,7,8-tetrahydro-4H-pyrazolo[1,5-a][1,4]diazepine-2-carbonyl)-9-aza-bicyclo[3.3.1]nonane-3-carboxylic acid], for which the IC50 is at most 100 nM.

As for `O=C(O)C1CC2CCCC(C1)N2C(=O)c1cc2n(n1)CCCN(C(=O)OCc1cc(C(F)(F)F)cc(C(F)(F)F)c1)C2` (stereo not drawn) [Example 63, 9-(5-((3,5-Bis(trifluoromethyl)benzyloxy)carbonyl)-5,6,7,8-tetrahydro-4H-pyrazolo[1,5-a][1,4]diazepine-2-carbonyl)-9-aza-bicyclo[3.3.1]nonane-3-carboxylic acid], the IC50 was at most 100 nM.

`O=C(O)c1cc2n(n1)CCCN(C(=O)OCc1cc(F)cc(C(F)(F)F)c1)C2` [Example 64, 5-(((3-Fluoro-5-(trifluoromethyl)benzyl)oxy)carbonyl)-5,6,7,8-tetrahydro-4H-pyrazolo[1,5-a][1,4]diazepine-2-carboxylic acid] registered an IC50 of at most 100 nM.

The compound `O=C(O)c1cc2n(n1)CCCN(C(=O)OCc1cc(Cl)cc(C(F)(F)F)c1)C2` [Example 65, 5-(((3-Chloro-5-(trifluoromethyl)benzyl)oxy)carbonyl)-5,6,7,8-tetrahydro-4H-pyrazolo[1,5-a][1,4]diazepine-2-carboxylic acid] gave an IC50 of at most 100 nM.

Turning to `O=C(O)c1cc2n(n1)CCCN(C(=O)OCc1cccc(C(F)(F)F)c1)C2` [Example 67, 5-(((3-(Trifluoromethyl)benzyl)oxy)carbonyl)-5,6,7,8-tetrahydro-4H-pyrazolo[1,5-a][1,4]diazepine-2-carboxylic acid], the IC50 was at most 500 nM.

The IC50 is the midpoint of a concentration-inhibition curve. A low value points to inhibition by little substance.
